# Values quoted from earlier work in patent US20220401390A1, “TREATMENTS OF DIABETIC MACULAR EDEMA AND IMPAIRED VISUAL ACUITY” (KALVISTA PHARMACEUTICALS LIMITED, priority 2019, published 2022).
# B1: ranibizumab: anti-VEGF therapy for DME currently in use (antibody, chains of the INN, looked up, V domains shown)
# VH: EVQLVESGGGLVQPGGSLRLSCAASGYDFTHYGMNWVRQAPGKGLEWVGWINTYTGEPTYAADFKRRFTFSLDTSKSTAYLQMNSLRAEDTAVYYCAKYPYYYGTSHWYFDVWGQGTLVTVSS
# VL: DIQLTQSPSSLSASVGDRVTITCSASQDISNYLNWYQQKPGKAPKVLIYFTSSLHSGVPSRFSGSGSGTDFTLTISSLQPEDFATYYCQQYSTVPWTFGQGTKVEIK
# modifications: Fab
# notes: anti-VEGF therapy for DME currently in use
# How the values were obtained:
# patients with DME = settings: clinical trials, after one year; cited from earlier work
# diabetic rats = settings: cited from earlier work
Molecule,Efficacy compared with laser therapy (patients with DME),Retinal vascular permeability and retinal blood flow abnormalities (diabetic rats)
pegaptanib,more effective than laser therapy,–
aflibercept: anti-VEGF therapy for DME currently in use,more effective than laser therapy,–
bevacizumab: anti-VEGF therapy for DME currently in use,more effective than laser therapy,–
N=C(N)c1ccc(CNC(=O)c2cnn(Cc3ccccc3)c2)cc1 [ASP-440],–,ameliorated
B1,more effective than laser therapy,–
